In experiment [1] the target is DOR (Homo sapiens, UniProt P41143). The experiment is described as follows: Gi-mediated inhibition of cAMP production at DOR. The experiment is classed as cell-based. Particulars: relative to KOR agonist activity; Figure S1. (Changes in cAMP serve as a functional read-out for many G protein-coupled receptors.)
Experiment [2] deals with T1, KOR (Homo sapiens, UniProt P41145). The experiment is classed as binding. Particulars: for LE (Ligand Efficiency): LE = 1.4(−logKi)/N.
Experiment [3] has as its target MOR (Homo sapiens, UniProt P35372). The experiment is described as follows: Gi-mediated inhibition of cAMP production at MOR. In kind it is cell-based. Particulars: relative to KOR agonist activity; Figure S1.
The target in experiment [4] is T1, KOR. The experiment is described as follows: KOR-arrestin translocation. The experiment is classed as cell-based. Particulars: for agonist activity in β-arrestin recruitment: agonist mode, normalized to Sal A.
The subject of experiment [5] is KOR I294A mutant. The experiment is described as follows: 3H-U69593 binding at KOR single point mutant I294A. Particulars: vs wild type KOR.
Experiment [6] deals with KOR M142A mutant. The experiment is described as follows: 3H-U69593 binding at KOR single point mutant M142A. Particulars: vs wild type KOR.
In experiment [7] the target is T1, KOR. The experiment can be described thus: Gi-mediated inhibition of cAMP production. The experiment is classed as cell-based.
In experiment [8] the test system is KOR H291A mutant. The experiment can be described thus: 3H-U69593 binding at KOR single point mutant H291A. Particulars: vs wild type KOR.
Setting [9] is: inhibition of Sal A mediated Gi activation.

Take `CC(c1cccc(O)c1)N(C)Cc1nccn1CC(F)(F)F` (stereo not drawn) [Compound 28]: the “reduction of agonist activity at DOR” value in experiment [1] is given as “at least 50%”. For the same molecule, in experiment [2] (Table 1 VLS hits, 50 μM compound, SEM, N=3), the “%Inhib ± SEM (inhibition of 3H-U69593 radioligand binding)” value amounted to 96.9 ± 1.2%. The “reduction of agonist activity at MOR” value in experiment [3] is reported as “at least 50%”. Moreover, the “agonist activity in β-arrestin recruitment” value in experiment [4] was “measurable β-arrestin recruitment activity”.
For `Oc1cccc(C(O)CNCc2ccc(Cl)cc2Cl)c1` (stereo not drawn) [Compound 64], the “effect of I294A mutation on ligand affinity (fold reduction vs WT KOR)” value in experiment [5] was “more than 10 fold”. The “effect of M142A mutation on ligand binding (fold reduction of binding vs WT KOR)” value (“effect … (fold reduction of binding vs WT KOR)” for short) in experiment [6] is reported as “at least 10 fold”. Besides, in experiment [7] (comparison of β-arrestin (Tango) and Gi-cAMP assays), the “functional profile, arrestin versus G-protein assays” value is “balanced antagonist”. In experiment [7] (setting [9]), the Schild slope is given as 1.15 ± 0.06 and the “pA2 (Schild analysis)” value was 6.78 ± 0.11. Also, the “LE (Ligand Efficiency)” value in experiment [2] (Table 2 derivatives) is 0.47 kcal/mol per heavy atom. Further, in experiment [4] (antagonist mode, 30 nM Sal A, normalized to 5-GNTI), the “antagonist activity: inhibition of Sal A-induced β-arrestin recruitment” value is reported as “completely inhibiting”. Moreover, the “effect of H291A mutation on ligand affinity (fold reduction vs WT KOR)” value in experiment [8] is on record as “more than 10 fold”.
Regarding `COc1ccc(CNCC(O)c2cccc(O)c2)cc1Br` (stereo not drawn) [Compound 67], the “effect of I294A mutation on ligand affinity (fold reduction vs WT KOR)” value in experiment [5] is “more than 10 fold”. In experiment [6], the “effect … (fold reduction of binding vs WT KOR)” value was “at least 10 fold”. For the same molecule, the “effect of H291A mutation on ligand affinity (fold reduction vs WT KOR)” value in experiment [8] is on record as “more than 10 fold”.
Turning to `Cc1ccc(C(CNC(=O)c2oc3ccccc3c2C)N2CCCC2)o1` (stereo not drawn) [Compound 69], the “effect … (fold reduction of binding vs WT KOR)” value in experiment [6] is on record as “enhancing binding”.
Turning to `Cc1ccc(C(CNC(=O)c2oc3ccc(F)cc3c2C)N2CCCC2)o1` (stereo not drawn) [Compound 70], the “effect … (fold reduction of binding vs WT KOR)” value in experiment [6] is reported as “enhancing binding”. Besides, the “LE (Ligand Efficiency)” value in experiment [2] (Table 2 derivatives) is 0.32 kcal/mol per heavy atom.
Consider `O=C(NC[C@@H](c1ccco1)N1CCCC1)c1cc2ccccc2o1` [Compound 71], for which the “LE (Ligand Efficiency)” value in experiment [2] (Table 2 derivatives) amounted to 0.35 kcal/mol per heavy atom.
As to `Cc1c(C(=O)NCC(c2ccco2)N2CCCC2)oc2ccc(Cl)cc12` (stereo not drawn) [Compound 72], the “effect … (fold reduction of binding vs WT KOR)” value in experiment [6] is reported as “enhancing binding”.
As for `COc1ccc2oc(C(=O)NCC(c3ccco3)N3CCCC3)c(C)c2c1` (stereo not drawn) [Compound 73], the “LE (Ligand Efficiency)” value in experiment [2] (Table 2 derivatives) worked out at 0.32 kcal/mol per heavy atom.
On to `CC(NCc1nccn1C)c1cccc(O)c1` (stereo not drawn) [Compound 81], for which the “reduction of agonist activity at DOR” value in experiment [1] is no less than 70%. The “%Inhib (inhibition of 3H-U69593 radioligand binding)” value in experiment [2] (Table 2 derivatives, 50 μM compound, N=3) is given as 78.81%. For the same molecule, the “reduction of agonist activity at MOR” value in experiment [3] is on record as no less than 70%. Also, in experiment [4], the “agonist activity in β-arrestin recruitment” value was “minimal β-arrestin recruitment”.
Consider `CCN(Cc1csc(C)n1)C(C)c1cccc(O)c1` (stereo not drawn) [Compound 87], for which the “effect of I294A mutation on ligand affinity (fold reduction vs WT KOR)” value in experiment [5] was “more than 10 fold”. For the same molecule, the “effect of H291A mutation on ligand affinity (fold reduction vs WT KOR)” value in experiment [8] was “more than 10 fold”.
Consider `COC(=O)[C@@H]1C[C@H](OC(C)=O)C(=O)[C@H]2[C@@]1(C)CC[C@H]1C(=O)O[C@H](c3ccoc3)C[C@]21C` [Sal A, salvinorin A, reference compound], for which, in experiment [5], the “effect of I294A mutation on ligand affinity (fold reduction vs WT KOR)” value is “not affecting binding”. Further, the “effect … (fold reduction of binding vs WT KOR)” value in experiment [6] is on record as “at least 10 fold”. For the same molecule, in experiment [8], the “effect of H291A mutation on ligand affinity (fold reduction vs WT KOR)” value is “not affecting binding”.
